Measurements: patent US6806264B2, “Arylphenyl-substituted cyclic ketoenols” (Bayer Aktiengesellschaft, priority 1998, dated 2004)

How the values were obtained:
[1] = test system: peach aphids (Myzus persicae); assay: Myzus test; format: in vivo; details: concentration of active compound 0.1 %, infested cabbage leaves (Brassica oleracea) dipped
[2] = test system: larvae of the mustard beetle (Phaedon cochileariae); assay: Phaedon larvae test; details: concentration of active compound 0.1 %, cabbage leaves (Brassica oleracea) dipped
[3] = test system: caterpillars of the army worm (Spodoptera frugiperda); assay: Spodoptera frugiperda test; format: in vivo; details: concentration of active compound 0.1 %, cabbage leaves (Brassica oleracea) dipped
[4] = test system: greenhouse red spidermite (Tetranychus urticae); assay: Tetranychus test (OP-resistant/dip treatment); format: in vivo; details: concentration of active compound 0.1 %, infested bean plants (Phaseolus vulgaris) dipped, OP-resistant
Protocol: After the desired period of time, the effect in % is determined.

## COC1CCC2(CC1)NC(=O)C(c1c(C)cc(C)c(-c3ccccc3)c1C)=C2O (stereo not drawn) [Ex. I-1-a-6]
other
  melting point: > 240 °C
[1]
  Degree of kill in % after 6 days: 100%
[2]
  Degree of kill in % after 7 days: 100%
[3]
  Degree of kill in % after 7 days: 100%

## COc1cc(Cl)c(C2=C(O)C3(CCC(OC)CC3)NC2=O)cc1-c1ccccc1 (stereo not drawn) [Ex. I-1-a-13]
other
  melting point: 134 °C
[2]
  Degree of kill in % after 7 days: 100%

## Cc1ccc(-c2ccc(Cl)cc2)c(C)c1C1=C(O)C2(CCC(C)CC2)NC1=O (stereo not drawn) [Ex. I-1-a-3]
other
  melting point: > 240 °C
[1]
  Degree of kill in % after 6 days: 98%
[2]
  Degree of kill in % after 7 days: 100%
[4]
  Degree of kill in % after 7 days: 100%
[3]
  Degree of kill in % after 7 days: 100%

## Cc1ccc(-c2ccc(Cl)cc2)c(C)c1C1=C(O)C2(CCCOC2)NC1=O (stereo not drawn) [Ex. I-1-a-7]
other
  melting point: > 250 °C
[1]
  Degree of kill in % after 6 days: 98%
[2]
  Degree of kill in % after 7 days: 100%
[3]
  Degree of kill in % after 7 days: 100%

## COC1CCC2(CC1)NC(=O)C(c1c(C)cc(C)c(-c3ccc(Cl)cc3)c1C)=C2O (stereo not drawn) [Ex. I-1-a-5]
other
  melting point: > 240 °C
[2]
  Degree of kill in % after 7 days: 100%
[3]
  Degree of kill in % after 7 days: 100%

## Cc1ccc(-c2ccccc2)c(C)c1C1=C(O)C2(CCC(C)CC2)NC1=O (stereo not drawn) [Ex. I-1-a-2]
other
  melting point: > 240 °C
[1]
  Degree of kill in % after 6 days: 95%
[2]
  Degree of kill in % after 7 days: 100%
